Data on eight compounds can be found in PubChem BioAssay (NCI).

Common to all, as to assay: NCI anticancer screen, dose series, 48 h
Assay [1] has as its system UACC-62 melanoma.
The subject of assay [2] is SF-268 CNS.
The test system of assay [3] is ACHN renal.
Assay [4] deals with SF-539 CNS.
The test system of assay [5] is SK-MEL-5 melanoma.
Assay [6] concerns NCI/ADR-RES ovarian.
The subject of assay [7] is HCT-116 colon.
Assay [8] relates to SK-MEL-2 melanoma.
Assay [9] concerns COLO 205 colon.
For assay [10], the system named is NCI-H23 lung.

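Assay format: 96-well plates, 48-hour exposure. GI50 = concentration required for 50% inhibition of growth. TGI: total growth inhibition.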

`COc1cc(C(=O)n2nc(N)c3c(C)cc(C)nc32)cc(OC)c1OC`: the GI50 in assay [1] is 54.1 µM; in assay [2], > 100 µM; in assay [3], > 100 µM; in assay [4], > 23.4 µM; in assay [5], 35.2 µM; in [6] it was 16.3 µM. For the same compound, the GI50 in [7] was 42 µM; in assay [8], > 64.1 µM; in assay [9], > 40.9 µM; in assay [10], > 100 µM. Also, the TGI in assay [1], in assay [2], in assay [3], in [4], in assay [5] and in assay [6] was > 100 µM each time. In addition, the TGI in assay [7], in assay [8], in [9] and in [10] was > 100 µM throughout.
As for `N=C(CC(=O)Nc1ccccn1)c1ccccc1`, the TGI in assay [1], in assay [2], in assay [3], in assay [4], in assay [5] and in assay [6] was > 100 µM in each case. The TGI in [7], in [8], in [9] and in [10] was > 100 µM throughout.
In the case of `CC1=C[C@@H]2c3c(c(O)c(O)c4oc5cc(O)cc(O)c5c(=O)c34)[C@@H](c3cc(O)c(O)c4oc5cc(O)cc(O)c5c(=O)c34)[C@@H]2C(C)(C)C1`, the GI50 in [1] is 1.88 µM; in assay [2], 3.25 µM; in assay [3], 4.25 µM; in assay [4], 4.7 µM; in assay [5], 2.56 µM; in [6], 10.2 µM. Besides, the GI50 in assay [7] was 2.7 µM; in [8], 5.99 µM; in [9], 2.86 µM; in [10], 3.33 µM. Besides, the TGI in assay [1] was found to be 5.72 µM; in assay [2], 16.1 µM; in assay [3], 15.7 µM; in assay [4], 17.2 µM; in [5] it was 10.5 µM; in assay [6], 27.1 µM. Further, the TGI was 9.85 µM in [7], 21 µM in assay [8], 11.2 µM in [9] and 14.5 µM in assay [10].
Consider `O=C1/C(=C/c2ccc([N+](=O)[O-])o2)Oc2ccc(Cl)cc21`, for which the GI50 in assay [1] is 1.58 µM; in [2], 1.84 µM; in [3] it was 1.54 µM; in assay [4], 1.82 µM; in [5], 1.58 µM; in assay [6], 3.36 µM. The GI50 is 0.648 µM in assay [7], 1.93 µM in assay [8], 1.89 µM in assay [9] and 2.11 µM in assay [10]. The TGI in assay [1] is 3.41 µM; in assay [2], 3.77 µM; in assay [3] it was 2.98 µM; in assay [4], 3.97 µM; in [5] it was 3.03 µM; in assay [6] it was > 100 µM. For the same compound, the TGI in assay [7] came out at 2.01 µM; in assay [8], 3.83 µM; in assay [9] it was 4.08 µM; in [10] it was 5.07 µM.
As for `Cc1cc(N(CCNc2ccnc3cc(Cl)ccc23)Cc2ccc3c(c2)OCO3)nc(N2CCCC2)n1`, the GI50 is 1.88 µM in assay [1]; 2.2 µM in [2]; 1.91 µM in assay [3]; 1.6 µM in assay [4]; 1.76 µM in assay [5]; 1.79 µM in assay [6]. The GI50 in assay [7] is 0.532 µM; in assay [8] it was 1.82 µM; in assay [9], 1.53 µM; in [10], 2 µM. Further, the TGI in [1] came to 3.49 µM; in [2] it was 7.16 µM; in [3], 4.09 µM; in [4], 3.09 µM; in [5], 3.21 µM; in assay [6] it was 5.56 µM. In addition, the TGI in [7] came to 2.14 µM; in [8], 3.62 µM; in assay [9], 3.17 µM; in assay [10], 6.25 µM.
As for `CC12O[C@H](C[C@@H](OC(=O)CCC(=O)O)[C@H]1O)n1c3ccccc3c3c4c(c5c6ccccc6n2c5c31)C(=O)NC4=O`, the GI50 in assay [1] was 0.585 µM; in assay [2], 3.21 µM; in [3] it was 0.727 µM; in [4] it was 1.22 µM; in assay [5] it was 1.41 µM; in assay [6] it was 6.24 µM. The GI50 in assay [7] is 1.5 µM; in [8] it was 0.464 µM; in [9], 0.902 µM; in assay [10], 1.13 µM. Besides, the TGI in assay [1] was 7.2 µM; in [2] it was 23.9 µM; in [3], > 50 µM; in assay [4] it was 3.97 µM; in assay [5] it was 6.69 µM; in [6] it was 40.8 µM. Moreover, the TGI in assay [7] came out at 9.8 µM; in [8], 16.5 µM; in assay [9], 5.26 µM; in assay [10], 20.3 µM.
`Cc1c(C(N)=O)sc2nc(C)n(/N=c3\scc(-c4ccccc4)n3Cc3ccccc3)c(=O)c12`: the GI50 was 4.26 µM in assay [1]; 4 µM in [2]; 2.86 µM in assay [3]; 4.02 µM in assay [4]; 1.81 µM in assay [5]; 2.9 µM in assay [6]. Also, the GI50 was 2.13 µM in assay [7], 3.89 µM in [8], 2.39 µM in [9] and 3.12 µM in assay [10]. Besides, the TGI in [1] is 83.2 µM; in assay [2] it was > 100 µM; in assay [3], > 100 µM; in [4], > 100 µM; in assay [5], 3.75 µM; in [6], 29.2 µM. Moreover, the TGI in assay [7] was 10.3 µM; in assay [8], 86.6 µM; in assay [9], 7.32 µM; in [10], > 100 µM.
With `O=C1NC(=NCCc2ccc(Br)cc2)S/C1=C\c1ccc2ncccc2c1`, the GI50 in [1] is > 25 µM; in [2], 15.9 µM; in assay [3] it was > 25 µM; in [4], 14.5 µM; in assay [5], > 21 µM; in assay [6] it was > 20.6 µM. The GI50 was 16.7 µM in assay [7], 21.6 µM in assay [8], > 25 µM in [9] and > 25 µM in assay [10]. Moreover, the TGI in [1], in assay [2], in [3], in assay [4], in [5] and in assay [6] was > 25 µM in each case. Besides, the TGI in assay [7], in assay [8], in [9] and in assay [10] was > 25 µM in each case.
